Usually ED50 stands for the dose at which the effect has come halfway, by size or by number of responders. High values mean weaker potency, low ones greater potency. Broadly, the Inhibition is the drop in the measured response relative to a control, in per cent. What is called inhibition is the percentage by which the read-out fell short of the control. The low end stands for a response near the control, the high end for a response far below the control. By Ki is commonly meant the equilibrium dissociation constant of an inhibitor or competing ligand from its target. The low end stands for tighter binding, the high end for weaker binding.

One assay concerns Cavia porcellus. Briefly: In vivo antihistaminic (Histamine H3) activity was determined in guinea pig. It is filed as functional.
Details: not given
In the case of `N=C(NCc1ccc(Cl)cc1)c1ccc(Cc2c[nH]cn2)cc1`, the 50% effect level (ED50) was put at a dose of 0.3 mg/kg.
On the same count and under the same terms, the same measure for `N=C(Cc1ccc(Cc2c[nH]cn2)cc1)NCc1ccc(Cl)cc1`: 0.3 mg/kg; for `S=C(NC1CCCCC1)N1CCC(c2cnc[nH]2)CC1` [THIOPERAMIDE]: 0.4 mg/kg.

The subject of the next assay is Cavia porcellus. Briefly: Percent inhibition of histamine H3 mediated antihistaminic activity in guinea pig was determined in vivo.
Details: not given
It is filed as functional.
As to `N=C(N)c1ccc(Cc2c[nH]cn2)cc1`, the Inhibition is listed as 33%.

In the next assay the target is Histamine H3 receptor (Cavia porcellus) (UniProt Q9JI35). Briefly: Compound was tested for inhibition of N-alpha-methylhistamine binding to histamine H3 receptor in guinea pig brain membranes. It is filed as cell membranes. The note with it: Membrane, concentration not given here.
Sequence of Histamine H3 receptor (Cavia porcellus) (Q9JI35 whole entry): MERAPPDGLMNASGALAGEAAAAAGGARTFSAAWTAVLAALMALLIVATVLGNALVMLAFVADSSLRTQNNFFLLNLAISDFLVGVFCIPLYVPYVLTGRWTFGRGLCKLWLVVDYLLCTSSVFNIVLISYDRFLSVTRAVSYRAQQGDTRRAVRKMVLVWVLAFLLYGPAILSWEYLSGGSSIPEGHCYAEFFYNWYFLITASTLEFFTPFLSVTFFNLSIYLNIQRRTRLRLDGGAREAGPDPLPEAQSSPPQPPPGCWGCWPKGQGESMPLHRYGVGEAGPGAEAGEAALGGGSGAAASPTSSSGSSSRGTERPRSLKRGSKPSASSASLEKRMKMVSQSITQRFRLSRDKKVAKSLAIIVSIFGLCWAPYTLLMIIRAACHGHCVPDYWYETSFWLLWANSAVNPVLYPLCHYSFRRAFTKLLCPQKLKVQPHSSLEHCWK
Turning to `N=C(N)c1ccc(-c2c[nH]cn2)cc1`, the inhibition was found to be 49%.
Still for that read-out and setting: the same measure for `N=C(NCc1ccncc1)c1ccc(Cc2c[nH]cn2)cc1`: 44%.

For a further assay, the target named is Histamine H3 receptor (Cavia porcellus, UniProt Q9JI35). Briefly: Inhibition of N-alpha-methylhistamine binding to histamine H3 receptor of guinea pig brain membranes.
Sequence of Histamine H3 receptor (Q9JI35 whole entry): as above
Details: not given
`N=C(NCc1ccc(Cl)cc1)c1ccc(Cc2c[nH]cn2)cc1` yielded a Ki of 16 nM.
Same read-out and setting: as for `N=C(CCc1ccc(Cc2cnc[nH]2)cc1)NCc1ccc(Cl)cc1`, the figure is 175 nM; as for `N=C(N)c1cccc(-c2c[nH]cn2)c1`, 350 nM; as for `N=C(N)CCCc1c[nH]cn1`, 1.2 nM.
Same read-out and setting: as for `COc1ccc(C/N=C(\N)c2ccc(Cc3c[nH]cn3)cc2)cc1`, the figure is 513 nM; as for `S=C(NC1CCCCC1)N1CCC(c2cnc[nH]2)CC1` [THIOPERAMIDE], 7.3 nM; as for `N=C(N)c1ccc(CCc2cnc[nH]2)cc1`, 165 nM.

(Values after ChEMBL document CHEMBL1131349, “4-[(1H-imidazol-4-yl) methyl] benzamidines and benzylamidines: novel antagonists of the histamine H3 receptor” (Bioorg Med Chem Lett, 1998).)
